Measured values from patent US20250223171A1, “ALLOTROPE OF CARBON HAVING INCREASED ELECTRON DELOCALIZATION” (Structured Nano Carbon LLC, priority 2017, published 2025).

What was measured:
[1] = system: rat; conditions: cited from earlier work
[2] = Antioxidant behavior of C60 fullerene compared with vitamin C (reported); conditions: 60 atoms for C60 fullerene versus six for vitamin C
Source text: Antioxidant behavior has been reported in C60 fullerene as being 172 times that of vitamin C or ascorbic acid.
The reported factor of 172 times greater than vitamin C can be partially explained by C60 fullerene having 60 carbons over which electron delocalization can proceed versus only six atoms of a mixture of half and half carbon and oxygen for vitamin C. If it were just numbers of atoms over which electron delocalization proceeds in its effectiveness in stabilizing unpaired electrons arising from ROS, one would expect that the potency of C60 fullerene would be only ten times that of vitamin C. Phenolics involve only seven atoms for stabilizing unpaired electrons of six carbons from the benzene ring plus the phenolic oxygen atom and thus C60 fullerene would then be expected to be a bit less than ten times that of phenolic antioxidants.
The reported 172 factor superiority of C60 fullerene in antioxidant behavior over vitamin C or ascorbic acid cannot be accounted for on the basis of individual atoms involved in the delocalization network alone. […] So, there must be something exceptional about the electron delocalization involving 3D fullerene concentric shells over 2D ascorbic acid or phenolics. There are several explanations for the superiority of 3D fullerene systems especially of the fullerene CNO systems: […]

**Q.** Which results are given for `c12c3c4c5c1c1c6c7c2c2c8c3c3c9c4c4c%10c5c5c1c1c6c6c%11c7c2c2c7c8c3c3c8c9c4c4c9c%10c5c5c1c1c6c6c%11c2c2c7c3c3c8c4c4c9c5c1c1c6c2c3c41` [C60 fullerene]?
**A.** life expectancy [1]: nearly doubling of life expectancy; superiority in antioxidant behavior over ascorbic acid, taking into account the number of atoms in the electron delocalization network [2]: 17.2 factor
